In ChEMBL document CHEMBL4014275, “Discovery of benzofuran-3(2H)-one derivatives as novel DRAK2 inhibitors that protect islet β-cells from apoptosis” (Eur J Med Chem, 2017):

What was measured:
[1] = biological target: T1, Serine/threonine-protein kinase 17B (Homo sapiens, UniProt O94768); test: Inhibition of recombinant GST-tagged DRAK2 (unknown origin) autophosphorylation after 2 hrs by ADP-glo assay
T1 sequence (O94768 whole entry): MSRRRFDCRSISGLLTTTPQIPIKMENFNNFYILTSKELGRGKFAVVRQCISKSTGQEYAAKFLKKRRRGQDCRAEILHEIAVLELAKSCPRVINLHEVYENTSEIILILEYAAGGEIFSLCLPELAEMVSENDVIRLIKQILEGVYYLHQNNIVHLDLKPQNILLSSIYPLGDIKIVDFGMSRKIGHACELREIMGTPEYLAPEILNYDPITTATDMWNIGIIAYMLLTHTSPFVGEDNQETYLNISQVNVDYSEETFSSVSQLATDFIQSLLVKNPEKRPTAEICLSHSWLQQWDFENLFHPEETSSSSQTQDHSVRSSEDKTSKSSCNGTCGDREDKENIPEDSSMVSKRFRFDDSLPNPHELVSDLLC

[2] = biological target: T2, Serine/threonine-protein kinase 17A (Homo sapiens, UniProt Q9UEE5); test: Inhibition of human DRAK1
T2 sequence (Q9UEE5 whole entry): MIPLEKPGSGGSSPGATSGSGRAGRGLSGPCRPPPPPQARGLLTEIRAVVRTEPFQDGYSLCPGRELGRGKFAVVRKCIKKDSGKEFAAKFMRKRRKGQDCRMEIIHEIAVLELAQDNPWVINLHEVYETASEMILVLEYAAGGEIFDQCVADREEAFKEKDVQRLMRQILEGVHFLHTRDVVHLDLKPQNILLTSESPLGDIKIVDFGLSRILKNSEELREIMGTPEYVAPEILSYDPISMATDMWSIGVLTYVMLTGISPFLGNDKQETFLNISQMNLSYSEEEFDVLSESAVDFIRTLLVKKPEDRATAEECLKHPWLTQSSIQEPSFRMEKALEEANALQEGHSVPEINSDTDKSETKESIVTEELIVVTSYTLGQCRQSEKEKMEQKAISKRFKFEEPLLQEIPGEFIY

[3] = biological target: Death-associated protein kinase 1 (Homo sapiens, UniProt P53355); test: Inhibition of human DAPK1
[4] = biological target: Death-associated protein kinase 2 (Homo sapiens, UniProt Q9UIK4); test: Inhibition of human DAPK2
Death-associated protein kinase 2, sequence (Q9UIK4 whole entry): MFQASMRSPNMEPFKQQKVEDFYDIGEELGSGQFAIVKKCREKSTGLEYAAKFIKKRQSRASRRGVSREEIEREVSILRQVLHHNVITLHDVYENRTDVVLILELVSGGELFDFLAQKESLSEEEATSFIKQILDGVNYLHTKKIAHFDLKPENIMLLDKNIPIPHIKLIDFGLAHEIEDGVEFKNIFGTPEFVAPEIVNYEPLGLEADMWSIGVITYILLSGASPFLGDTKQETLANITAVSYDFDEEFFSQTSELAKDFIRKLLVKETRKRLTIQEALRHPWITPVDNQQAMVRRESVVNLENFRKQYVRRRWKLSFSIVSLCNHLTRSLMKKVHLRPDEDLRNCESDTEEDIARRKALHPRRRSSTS

[5] = biological target: Death-associated protein kinase 3 (Homo sapiens, UniProt O43293); test: Inhibition of human DAPK3
Death-associated protein kinase 3, sequence (O43293 whole entry): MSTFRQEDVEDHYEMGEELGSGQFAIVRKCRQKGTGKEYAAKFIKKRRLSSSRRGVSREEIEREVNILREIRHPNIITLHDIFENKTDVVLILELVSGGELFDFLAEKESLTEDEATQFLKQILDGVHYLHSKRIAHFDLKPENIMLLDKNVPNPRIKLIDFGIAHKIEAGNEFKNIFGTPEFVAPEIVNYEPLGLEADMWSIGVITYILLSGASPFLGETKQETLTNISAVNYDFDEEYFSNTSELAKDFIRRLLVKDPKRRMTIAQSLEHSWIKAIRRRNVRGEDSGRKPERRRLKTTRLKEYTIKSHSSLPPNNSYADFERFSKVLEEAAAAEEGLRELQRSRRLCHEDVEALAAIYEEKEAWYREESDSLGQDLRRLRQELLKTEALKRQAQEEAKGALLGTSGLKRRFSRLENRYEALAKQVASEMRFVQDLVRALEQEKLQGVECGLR

[6] = biological target: Tyrosine-protein kinase Blk (Homo sapiens, UniProt P51451); test: Inhibition of human BLK
Tyrosine-protein kinase Blk, sequence (P51451 whole entry): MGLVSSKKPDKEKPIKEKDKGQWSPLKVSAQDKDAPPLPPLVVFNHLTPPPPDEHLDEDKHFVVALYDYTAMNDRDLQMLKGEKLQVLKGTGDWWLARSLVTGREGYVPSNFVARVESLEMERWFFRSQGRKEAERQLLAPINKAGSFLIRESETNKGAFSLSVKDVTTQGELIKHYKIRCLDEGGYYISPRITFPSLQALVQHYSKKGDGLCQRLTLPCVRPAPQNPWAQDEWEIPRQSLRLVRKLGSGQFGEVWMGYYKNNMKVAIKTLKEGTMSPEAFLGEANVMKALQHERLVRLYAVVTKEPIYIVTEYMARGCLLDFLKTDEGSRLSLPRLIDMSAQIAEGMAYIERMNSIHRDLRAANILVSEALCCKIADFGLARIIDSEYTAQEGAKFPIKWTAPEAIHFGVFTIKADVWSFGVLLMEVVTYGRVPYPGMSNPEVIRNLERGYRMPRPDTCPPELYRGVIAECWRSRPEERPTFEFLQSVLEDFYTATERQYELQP

[7] = biological target: T3, Tyrosine-protein kinase ITK/TSK (Homo sapiens, UniProt Q08881); test: Inhibition of human ITK
T3 sequence (Q08881 whole entry): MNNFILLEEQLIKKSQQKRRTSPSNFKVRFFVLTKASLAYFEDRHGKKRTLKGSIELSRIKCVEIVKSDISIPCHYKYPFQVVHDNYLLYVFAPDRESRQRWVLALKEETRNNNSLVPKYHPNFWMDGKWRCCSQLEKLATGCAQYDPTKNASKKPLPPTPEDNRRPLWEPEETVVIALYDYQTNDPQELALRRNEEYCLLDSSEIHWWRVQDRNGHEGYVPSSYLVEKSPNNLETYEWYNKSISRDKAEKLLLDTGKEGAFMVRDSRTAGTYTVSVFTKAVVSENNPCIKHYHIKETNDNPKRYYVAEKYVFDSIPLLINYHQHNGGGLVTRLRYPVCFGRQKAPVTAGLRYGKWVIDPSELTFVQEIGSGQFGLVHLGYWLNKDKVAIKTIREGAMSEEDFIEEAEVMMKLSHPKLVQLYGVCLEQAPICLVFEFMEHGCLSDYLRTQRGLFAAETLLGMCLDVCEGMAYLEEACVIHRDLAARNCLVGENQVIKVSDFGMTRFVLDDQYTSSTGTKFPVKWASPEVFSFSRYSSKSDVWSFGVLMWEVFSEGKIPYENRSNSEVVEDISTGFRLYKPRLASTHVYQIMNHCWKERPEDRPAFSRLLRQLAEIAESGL

Angiopoietin-1 receptor = Angiopoietin-1 receptor (Homo sapiens, UniProt Q02763); test: Inhibition of human TEK
Angiopoietin-1 receptor, sequence (Q02763 whole entry): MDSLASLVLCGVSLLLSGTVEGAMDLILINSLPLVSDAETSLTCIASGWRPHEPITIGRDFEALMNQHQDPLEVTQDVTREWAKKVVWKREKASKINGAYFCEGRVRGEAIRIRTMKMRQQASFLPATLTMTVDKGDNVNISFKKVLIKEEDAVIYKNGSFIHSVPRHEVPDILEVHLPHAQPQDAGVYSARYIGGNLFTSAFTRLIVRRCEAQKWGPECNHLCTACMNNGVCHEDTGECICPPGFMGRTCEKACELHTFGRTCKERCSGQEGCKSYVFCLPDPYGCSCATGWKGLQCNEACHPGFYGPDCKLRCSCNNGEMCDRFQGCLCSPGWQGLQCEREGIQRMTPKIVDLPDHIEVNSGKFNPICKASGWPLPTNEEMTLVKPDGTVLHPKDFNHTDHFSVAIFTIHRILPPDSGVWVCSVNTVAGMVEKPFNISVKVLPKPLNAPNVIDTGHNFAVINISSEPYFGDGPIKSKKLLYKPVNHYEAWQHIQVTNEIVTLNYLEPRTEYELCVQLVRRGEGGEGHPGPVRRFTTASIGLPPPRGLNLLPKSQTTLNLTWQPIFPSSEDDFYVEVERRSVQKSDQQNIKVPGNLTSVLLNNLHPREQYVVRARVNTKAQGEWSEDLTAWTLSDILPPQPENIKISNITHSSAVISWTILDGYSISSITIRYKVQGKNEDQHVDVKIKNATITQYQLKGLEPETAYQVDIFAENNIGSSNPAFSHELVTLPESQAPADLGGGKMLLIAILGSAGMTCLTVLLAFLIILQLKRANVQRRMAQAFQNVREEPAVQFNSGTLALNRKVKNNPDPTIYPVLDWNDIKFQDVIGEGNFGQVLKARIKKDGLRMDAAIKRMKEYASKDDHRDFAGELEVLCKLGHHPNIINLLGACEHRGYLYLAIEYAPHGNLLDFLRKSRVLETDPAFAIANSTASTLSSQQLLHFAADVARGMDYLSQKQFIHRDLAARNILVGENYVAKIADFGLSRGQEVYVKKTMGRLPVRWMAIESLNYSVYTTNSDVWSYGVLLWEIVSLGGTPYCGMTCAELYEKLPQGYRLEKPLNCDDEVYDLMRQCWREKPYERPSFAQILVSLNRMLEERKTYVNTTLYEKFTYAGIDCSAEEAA

[8] = biological target: Tyrosine-protein kinase JAK2 (Homo sapiens, UniProt O60674); test: Inhibition of human JAK2
[9] = biological target: T4, Tyrosine-protein kinase JAK3 (Homo sapiens, UniProt P52333); test: Inhibition of human JAK3
T4 sequence (P52333 whole entry): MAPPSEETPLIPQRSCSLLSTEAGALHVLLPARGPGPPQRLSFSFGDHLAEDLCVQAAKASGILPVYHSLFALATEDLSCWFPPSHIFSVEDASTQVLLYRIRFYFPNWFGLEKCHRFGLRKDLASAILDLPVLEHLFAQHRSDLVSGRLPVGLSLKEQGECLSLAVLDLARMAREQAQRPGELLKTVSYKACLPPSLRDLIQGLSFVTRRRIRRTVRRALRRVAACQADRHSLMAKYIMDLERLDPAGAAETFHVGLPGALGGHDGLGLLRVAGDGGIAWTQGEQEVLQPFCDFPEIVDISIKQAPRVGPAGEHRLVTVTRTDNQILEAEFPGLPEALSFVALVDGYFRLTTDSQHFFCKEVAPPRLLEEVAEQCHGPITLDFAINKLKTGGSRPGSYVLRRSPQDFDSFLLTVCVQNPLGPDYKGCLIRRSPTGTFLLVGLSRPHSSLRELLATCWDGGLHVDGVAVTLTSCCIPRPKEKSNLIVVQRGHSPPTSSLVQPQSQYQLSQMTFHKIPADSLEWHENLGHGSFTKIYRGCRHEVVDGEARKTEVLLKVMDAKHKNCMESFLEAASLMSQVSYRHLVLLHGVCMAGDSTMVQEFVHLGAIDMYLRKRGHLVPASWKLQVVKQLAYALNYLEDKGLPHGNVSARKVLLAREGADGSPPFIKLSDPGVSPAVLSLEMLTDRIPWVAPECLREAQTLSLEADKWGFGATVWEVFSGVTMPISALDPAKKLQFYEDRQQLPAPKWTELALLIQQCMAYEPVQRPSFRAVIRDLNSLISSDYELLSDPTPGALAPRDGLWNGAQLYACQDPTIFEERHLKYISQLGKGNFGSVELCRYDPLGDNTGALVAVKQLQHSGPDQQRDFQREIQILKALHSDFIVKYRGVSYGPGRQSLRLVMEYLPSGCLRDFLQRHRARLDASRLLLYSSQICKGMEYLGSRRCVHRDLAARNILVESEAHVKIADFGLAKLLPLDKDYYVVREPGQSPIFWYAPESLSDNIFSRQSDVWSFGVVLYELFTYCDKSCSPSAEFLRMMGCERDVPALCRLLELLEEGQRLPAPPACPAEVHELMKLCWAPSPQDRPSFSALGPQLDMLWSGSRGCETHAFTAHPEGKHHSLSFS

[10] = biological target: Tyrosine-protein kinase SYK (Homo sapiens, UniProt P43405); test: Inhibition of human SYK
Aurora kinase A = biological target: T5, Aurora kinase A (Homo sapiens, UniProt O14965); test: Inhibition of human AURORA-A
T5 sequence (O14965 whole entry): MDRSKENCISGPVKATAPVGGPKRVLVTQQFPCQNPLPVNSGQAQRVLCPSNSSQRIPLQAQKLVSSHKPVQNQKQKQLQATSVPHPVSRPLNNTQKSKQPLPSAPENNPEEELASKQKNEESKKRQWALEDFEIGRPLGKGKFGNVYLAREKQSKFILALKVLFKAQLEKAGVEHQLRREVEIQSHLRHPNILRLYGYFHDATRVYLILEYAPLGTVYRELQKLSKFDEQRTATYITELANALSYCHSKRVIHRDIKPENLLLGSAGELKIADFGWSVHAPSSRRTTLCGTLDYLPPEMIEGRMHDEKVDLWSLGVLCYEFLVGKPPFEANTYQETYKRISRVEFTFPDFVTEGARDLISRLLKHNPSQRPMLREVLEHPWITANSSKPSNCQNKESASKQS

[11] = biological target: Tyrosine-protein kinase BTK (Homo sapiens, UniProt Q06187); test: Inhibition of human BTK
Tyrosine-protein kinase BTK, sequence (Q06187 whole entry): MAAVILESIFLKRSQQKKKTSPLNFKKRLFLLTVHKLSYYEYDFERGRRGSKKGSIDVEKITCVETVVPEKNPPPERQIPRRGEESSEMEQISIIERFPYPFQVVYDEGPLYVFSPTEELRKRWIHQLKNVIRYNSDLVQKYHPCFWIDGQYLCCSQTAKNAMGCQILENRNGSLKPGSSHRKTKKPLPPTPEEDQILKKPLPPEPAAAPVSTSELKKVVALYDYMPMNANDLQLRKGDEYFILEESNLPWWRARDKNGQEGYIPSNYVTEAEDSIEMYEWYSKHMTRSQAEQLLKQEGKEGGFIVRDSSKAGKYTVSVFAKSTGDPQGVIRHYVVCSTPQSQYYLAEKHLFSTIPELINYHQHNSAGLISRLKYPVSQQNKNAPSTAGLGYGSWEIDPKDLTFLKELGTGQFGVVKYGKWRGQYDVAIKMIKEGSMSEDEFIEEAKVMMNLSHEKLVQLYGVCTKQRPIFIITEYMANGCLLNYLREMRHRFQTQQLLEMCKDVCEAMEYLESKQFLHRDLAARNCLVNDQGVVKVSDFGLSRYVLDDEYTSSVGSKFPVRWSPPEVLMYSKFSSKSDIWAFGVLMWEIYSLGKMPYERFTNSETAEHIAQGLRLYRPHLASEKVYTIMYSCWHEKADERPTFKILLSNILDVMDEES

[12] = biological target: Cyclin-dependent kinase 4 (Homo sapiens, UniProt P11802); test: Inhibition of human CDK4
Cyclin-dependent kinase 4, sequence (P11802 whole entry): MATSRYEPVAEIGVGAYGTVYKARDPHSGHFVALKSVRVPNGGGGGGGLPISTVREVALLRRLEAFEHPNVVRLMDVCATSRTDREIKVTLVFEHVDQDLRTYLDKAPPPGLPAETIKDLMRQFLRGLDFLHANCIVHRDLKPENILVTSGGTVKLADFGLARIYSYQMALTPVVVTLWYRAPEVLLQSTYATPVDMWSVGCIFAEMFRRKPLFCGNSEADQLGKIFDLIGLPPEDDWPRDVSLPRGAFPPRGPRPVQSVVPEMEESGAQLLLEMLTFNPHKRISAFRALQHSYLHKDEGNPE

[13] = biological target: Cyclin-dependent kinase 5 (Homo sapiens, UniProt Q00535); test: Inhibition of human CDK5
Cyclin-dependent kinase 5, sequence (Q00535 whole entry): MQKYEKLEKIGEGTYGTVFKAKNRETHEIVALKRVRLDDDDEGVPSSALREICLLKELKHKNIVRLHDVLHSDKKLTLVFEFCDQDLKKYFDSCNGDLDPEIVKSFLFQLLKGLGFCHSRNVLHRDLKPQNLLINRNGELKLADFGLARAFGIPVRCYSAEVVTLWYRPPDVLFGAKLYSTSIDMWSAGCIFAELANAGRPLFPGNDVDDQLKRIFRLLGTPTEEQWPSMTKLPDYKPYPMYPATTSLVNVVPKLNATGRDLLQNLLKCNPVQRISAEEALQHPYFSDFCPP

[14] = biological target: Cyclin-dependent kinase 6 (Homo sapiens, UniProt Q00534); test: Inhibition of human CDK6
Cyclin-dependent kinase 6, sequence (Q00534 whole entry): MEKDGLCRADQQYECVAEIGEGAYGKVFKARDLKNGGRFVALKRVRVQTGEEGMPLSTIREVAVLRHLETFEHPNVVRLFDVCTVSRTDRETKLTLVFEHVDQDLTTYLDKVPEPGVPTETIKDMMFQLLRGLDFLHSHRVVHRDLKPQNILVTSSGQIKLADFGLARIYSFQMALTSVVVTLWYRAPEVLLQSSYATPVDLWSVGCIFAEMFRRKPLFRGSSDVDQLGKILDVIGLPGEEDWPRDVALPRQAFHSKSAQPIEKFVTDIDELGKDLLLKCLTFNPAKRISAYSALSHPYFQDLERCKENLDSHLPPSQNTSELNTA

[15] = biological target: Cyclin-dependent kinase 9 (Homo sapiens, UniProt P50750); test: Inhibition of human CDK9
Cyclin-dependent kinase 9, sequence (P50750 whole entry): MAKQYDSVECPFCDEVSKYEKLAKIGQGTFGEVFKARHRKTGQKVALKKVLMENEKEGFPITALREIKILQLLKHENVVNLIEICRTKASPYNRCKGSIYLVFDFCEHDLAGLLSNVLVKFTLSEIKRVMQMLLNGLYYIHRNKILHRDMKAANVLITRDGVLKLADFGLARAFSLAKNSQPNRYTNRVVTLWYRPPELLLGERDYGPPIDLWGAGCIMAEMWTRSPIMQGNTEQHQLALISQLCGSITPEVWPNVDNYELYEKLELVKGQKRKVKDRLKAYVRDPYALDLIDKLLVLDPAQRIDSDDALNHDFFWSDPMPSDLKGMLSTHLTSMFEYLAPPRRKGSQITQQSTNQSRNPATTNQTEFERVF

[16] = biological target: Glycogen synthase kinase-3 beta (Homo sapiens, UniProt P49841); test: Inhibition of human GSK3beta
Glycogen synthase kinase-3 beta, sequence (P49841 whole entry): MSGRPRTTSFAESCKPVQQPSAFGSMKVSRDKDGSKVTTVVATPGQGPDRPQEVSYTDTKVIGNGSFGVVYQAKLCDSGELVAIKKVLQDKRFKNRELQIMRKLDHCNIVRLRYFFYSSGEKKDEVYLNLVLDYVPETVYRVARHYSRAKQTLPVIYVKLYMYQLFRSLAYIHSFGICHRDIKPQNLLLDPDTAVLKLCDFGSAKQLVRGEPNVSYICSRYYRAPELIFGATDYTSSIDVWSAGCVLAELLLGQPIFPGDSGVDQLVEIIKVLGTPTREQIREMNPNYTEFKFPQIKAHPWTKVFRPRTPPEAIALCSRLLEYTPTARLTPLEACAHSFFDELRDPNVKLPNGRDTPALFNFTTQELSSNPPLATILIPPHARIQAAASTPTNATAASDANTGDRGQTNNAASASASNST

Structure (SMILES)	IC50 [1]	other results
O=C1/C(=C/c2ccc(O)c(O)c2)Oc2ccc(O)cc21	0.99 µM	–
O=C1/C(=C/c2ccc(F)cc2)Oc2ccccc21	40.5 µM	–
COc1ccc(/C=C2\Oc3ccccc3C2=O)cc1OC [3',4'-DIMETHOXY-AURONE]	21.4 µM	–
CCOc1cc(/C=C2\Oc3cc(OC)ccc3C2=O)ccc1O	2.44 µM	–
CCOc1cc(/C=C2\Oc3cc(F)ccc3C2=O)ccc1O	60.4 µM	–
CCOc1cc(/C=C2\Oc3ccc(OC(C)=O)cc3C2=O)ccc1O	0.69 µM	–
O=C1/C(=C/c2ccccc2)Oc2ccccc21 [(Z)-AURONE]	24.6 µM	–
CCCCOc1cc(/C=C2\Oc3ccccc3C2=O)ccc1O	29.1 µM	–
O=C1/C(=C/c2cccnc2)Oc2ccccc21	39.4 µM	–
CCOc1cc(/C=C2\Oc3ccc(F)cc3C2=O)ccc1O	1.05 µM	–
CCOc1cc(/C=C2\Oc3ccc(I)cc3C2=O)ccc1O	42.5 µM	–
CCOc1cc(/C=C2\Oc3cc(Cl)ccc3C2=O)ccc1O	40.5 µM	–
O=C1/C(=C/c2ccco2)Oc2ccccc21	64 µM	–
O=C1/C(=C/c2ccc(O)c(O)c2)Oc2cc(O)ccc21 [SULFURETIN]	1.02 µM	IC50 [2]: 5.85 µM; IC50 [3]: 13.2 µM; IC50 [4]: 3.07 µM; IC50 [5]: 2.33 µM; IC50 [6]: 2.88 µM; IC50 [7]: 2.02 µM; IC50 (Angiopoietin-1 receptor): 0.95 µM; IC50 [8]: 9.32 µM; IC50 [9]: 4.26 µM; IC50 [10]: 4.63 µM; IC50 (Aurora kinase A): 0.85 µM; IC50 [11]: 6.02 µM; IC50 [12]: 2.82 µM; IC50 [13]: 1.5 µM; IC50 [14]: 2.44 µM; IC50 [15]: 2.16 µM; IC50 [16]: 1.95 µM
CCCOc1cc(/C=C2\Oc3ccccc3C2=O)ccc1O	5.37 µM	–
O=C(c1ccc(O)c(O)c1)c1cc2ccccc2o1	22.9 µM	–
O=C1c2ccccc2OC1Cc1ccc(O)c(O)c1 (stereo not given)	27.8 µM	–
CCOc1cc(/C=C2\Oc3cccc(OC)c3C2=O)ccc1O	7.26 µM	–

Structure (SMILES)	IC50 [1]	other results
CCCCOc1ccc2c(c1)C(=O)/C(=C/c1ccc(O)c(OCC)c1)O2	3.66 µM	–
COc1ccc(-c2cnc3scc(NC(=O)C4CCCCC4)c3c2)cc1OC	1.31 µM	IC50 [4]: 55 µM; IC50 [5]: 39.8 µM
CCOc1cc(/C=C2\Oc3ccc(Br)cc3C2=O)ccc1O	28.1 µM	–
CCOc1ccc2c(c1)C(=O)/C(=C/c1ccc(O)c(OCC)c1)O2	0.41 µM	–
O=C1/C(=C/c2ccc(O)c(O)c2)Cc2ccccc21	13.3 µM	–
CCOc1cc(/C=C2\Oc3ccc(N)cc3C2=O)ccc1O	7.16 µM	–
O=C1/C(=C/c2ccc(CO)cc2)Oc2ccccc21	11.1 µM	–
O=C1/C(=C/c2ccc(O)cc2)Oc2ccccc21	53 µM	–
COc1cc(/C=C2\Oc3ccccc3C2=O)ccc1O	3.11 µM	–
O=C1/C(=C/c2ccc(O)c(O)c2)Oc2ccccc21	3.08 to 3.15 µM	–
COc1cc(/C=C2\Oc3ccccc3C2=O)cc(OC)c1O	6.65 µM	–
CC(C)Oc1cc(/C=C2\Oc3ccccc3C2=O)ccc1O	17.4 µM	–
CCOc1cc(/C=C2\Oc3ccccc3C2=O)ccc1O	3.24 µM	–
COc1ccc(/C=C2\Oc3ccccc3C2=O)cc1O	12.1 µM	–
COc1ccc2c(c1)C(=O)/C(=C/c1ccc(O)c(O)c1)O2	0.25 µM	IC50 [2]: 5.81 µM; IC50 [4]: 6.34 µM; IC50 [5]: 12.1 µM; IC50 [6]: 3.05 µM; IC50 [7]: 2.19 µM; IC50 (Angiopoietin-1 receptor): 0.51 µM; IC50 (Aurora kinase A): 1.05 µM; IC50 [11]: 5.03 µM; IC50 [13]: 8.84 µM; IC50 [16]: 5.3 µM
CCOc1cc(/C=C2\Oc3ccc(Cl)cc3C2=O)ccc1O	13.7 µM	–
CCOc1cc(/C=C2\Oc3c(OC)cccc3C2=O)ccc1O	1.29 µM	–
CCOc1cc(/C=C2\Oc3ccc(C)cc3C2=O)ccc1O	0.96 µM	–
